Results as given in patent US6602687B1, “DNA encoding human ciliary neurotrophic factor and method for producing the protein encoded thereby” (Regeneron Pharmaceuticals, Inc., priority 1989, dated 2003).

Columns and labels:
[1] = system: chick embryonic spinal motorneurons; experiment: Survival of chick embryonic spinal motorneurons in culture; assay type: cell-based; set-up: key to Survival: −: not significantly different from control (survival: 8.3 ± 3.8%, mean ± SD, n = 18); ±: about 15-20% (statistically significant from each blank control, p < 0.01); + +: about 35-55%; + ++: about 55-75%; details: for highest survival effect of the concentration-response curve: CNTF = recombinant rat; for Motoneuron survival (%) / Survival: after 3 days in culture; for Motoneuron survival (%): mean ± SEM (n = 4), IGF-I 1 μg/ml, Basic FGF 30 ng/ml, CNTF 1.5 ng/ml; for Survival: one concentration per molecule, Table VI, CNTF rat, rec.; for survival effect on motoneurons: supramaximal concentrations, NT-3 produced by transfected Cos-cells
Method: Motorneuron columns were dissected under a stereomicroscope from the lumbar part of the spinal cord of chick embryos on the 6th day of embryonic development and stored in cold calcium and magnesium-free Hanks balanced salt solution supplemented with glucose (4 g/l) (HBSS). The tissues were washed with HBSS and treated with 0.03% trypsin in HBSS at 37° C. for 20 min with gentle shaking, rinsed with cold HBSS and triturated mildly in 3 steps of 8-passage agitation in 1 ml of cold 0.1% soybean trypsin inhibitor (Sigma) in HBSS through a fire-polished siliconized Pasteur pipette. Each supernatant cell suspension was filtered through 50 μm-Nylon mesh, pooled and layered onto 4 ml of cold 6.8% metrizamide (Fluka) in HBSS-25 mM HEPES (pH7.4) in a 12 ml-siliconized conical glass tube. The tube was centrifuged at 400 g for 15 min at 4° C. and the intermediate layer (0.5 ml) was collected into another siliconized tube containing 6.5 ml of cold culture medium (a mixture of glucose (4 g/l)-supplemented Leibovitz's L-15 medium (Gibco), 0.15 M sodium bicarbonate, heat-inactivated and filtered horse serum and penicillin G (10^5 units/ml) at the ratio of 75:15:10:0.1, freshly prepared and buffered with 5% CO2.) After centrifugation at 100×g for 7 min at 4° C., the supernatant was removed and the cells were gently resuspended in culture medium and plated in Greiner 4-well culture dishes (well diameter, 10 mm; C. A. Greiner und Sohne GmbH, Nurtingen, West Germany) at 1000-2000 cells/well. The dishes had been precoated with poly-DL-ornithine (Sigma, 0.5 mg in 0.15 M sodium borate buffer (pH 8.3) overnight at 4° C., rinsed twice with phosphate-buffered saline (PBS) and subsequently coated with laminin (Gibco; 10 μg/ml in the serum-depleted culture medium) and placed in a 5% CO2-incubator until cell plating (5-6 hrs). Cells were incubated at 37° C. in a humidified 5% CO2- and 95% air-incubator. Samples were added one hr after plating and the culture medium changed after 24 hrs and 72 hrs. The initial cell numbers were counted 3 hrs after plating.
In some experiments motor neurons were retrogradely labeled with a fluorescent dye in vivo before cell preparation (U. Dohrman et al., 1986, Dev. Biol. 118:209-221) to identify the motor neuron cell population. A small hole was made in the shell of eggs which had been incubated for 5 days. Small pieces of rhodamine isothiocyanate crystals (Sigma) were inserted at two or three places into each hind limb thigh and the egg hole was sealed with a cellophane tape. The eggs were incubated for another 24 hrs. Some of the operated embryos were then processed for frozen sections after formaldehyde fixation. […] The other embryos were used for cell preparation using the method described above (18.1.1). After 5 hrs in culture cells were rinsed with warm HBSS, fixed with 4% formaldehyde in PBS at room temperature for 20 min, rinsed with PBS and then mounted in glycerol-PBS (1:1) with glass coverslips. Of the total cells approximately 83% were labeled and identified as motorneurons (FIG. 42.) Most of these labeled motorneurons were large cells and the rest were intermediate-size cells. No small cells were labeled. On the other hand, in experiments in which cells were not labeled with a fluorescent dye about 70% of the total cells were large phase-bright cells with round cell somas, about 20% were intermediate-size neurons (most of them may be motorneurons) and about 10% were small immature neurons (they have neuron-like processes with growth cones but have phase-dark semi-flat cell somas). Non-neuronal cells were either not present or accounted for less than 2%. Taken together, one may conclude that at least 83% of the cells are motorneurons while the remainder consists of non-labeled motorneurons, a small number of unidentified intermediate-size neurons and about 10% immature small neurons. […]

hippocampal neurons = experiment: Glutamate-induced toxicity in hippocampal cultures (MTT assay); assay type: cell-based, rat; details: glutamate 1 mM for 15 minutes, MTT after 20 h
Method: FIG. 38. Protective effect of CNTF on glutamate-induced toxicity in hippocampal cultures. […] Glutamate at various concentations (100-1000 uM) was added for 15 minutes, after which the cells were cultured in the absence of glutamate or CNTF for 20 h. Survival of cells at the end of the culture period was assessed by MTT assay based on the conversion of MTT (3-(4,5-dimethylthiazol-2-yl)-2,5-diphenyl tetrazolium bromide) to a purple product by vital cells. MTT dye was added to a final concentration of 0.5 mg/ml. Dyes taken up by live cells were solubilized by the addition of 0.08N HCI in isopropranol 5 hours later, and O.D. (570-650 nm) was measured.
The effect of CNTF on GABAergic neurons was dependent on the density at which the cells were plated. […] This may be due to an elevated level of neurotrophic factors in high density cultures. […] We have assessed the neurotoxic effects of various concentrations of glutamate (10-1000 μM) by means of a calorimetric MTT assay, as shown in FIG. 38. At a concentration of 1 mM, glutamate reduced cell survival to approximately 10%. In the presence of CNTF ([…]), cell survival following exposure to glutamate was enhanced.

[2] = system: E8 chick ciliary ganglion neurons; experiment: Survival of dissociated E8 chick ciliary ganglion neurons; assay type: cell-based; details: cultured two days with a range of peptide concentrations
Description: Ciliary neurotrophic factor activity may be evaluated using any CNTF-sensitive in vivo or in vitro system known in the art. For example, and not by way of limitation, in vitro systems have been developed which measure CNTF activity by quantitating 24-hour survival of embryonic (E8) chick ciliary ganglion (CG) neurons in monolayer cultures.
For example, ciliary ganglia may be collected from E8 chick embryos, dissociated (yielding approximately 20,000 cells per ganglion) and then diluted in HEBM medium containing 20 percent horse serum as described in Varon et al. (1979, Brain Res. 173:29-45). […] Culture plates may then be maintained at 37° C. in 5% CO2 for 24 hours, after which the cultures may be fixed by the addition of 200 μl 2 per cent glutaraldehyde in HEBM medium, and the number of surviving neurons may be determined visually by direct count under phase contrast microscopy. […]
Biological activity of recombinant CNTF was assayed on explants of chick embryo dorsal root ganglia (DRG) and dissociated cultures of ciliary ganglion (CG) neurons as described in Lindsay and Rohrer (1985, Devel. Biol 112:30-48). […] In explant cultures CNTF activity was determined by assessing the extent of fiber outgrowth in treated cultures compared to controls. Fiber outgrowth was scored on a scale of 0 to 5+, by comparing cultures to photographs of a dose-response of explanted DRG and NGF. […]

Compound | concentration at which the highest survival effect was obtained ([1]; 3 days in culture) | highest survival effect of the concentration-response curve ([1]; 3 days in culture) | Survival [1] | survival effect on motoneurons [1] | other results
IGF-I: insulin-like growth factor I (human, rec.) | 100 ng/mL | 15% | ± (about 15-20% (statistically significant from each blank control, p < 0.01)) |  | Motoneuron survival (%) [1]: 14.5 ± 0.5 %
Acidic FGF: acidic FGF (human, rec.) | 300 ng/mL | 18% | ± (about 15-20% (statistically significant from each blank control, p < 0.01)) |  | concentration at which the highest survival effect was obtained, in the presence of 1 μg/ml heparin ([1]; 3 days in culture): 100 ng/mL; highest survival effect of the concentration-response curve, in the presence of 1 μg/ml heparin ([1]; 3 days in culture, heparin only first 24 hr): 35%
TGFβ1: TGFβ1 (porcine, rec.) |  |  | − | no discernable effect | 
IL-1β: IL-1β (human, rec.) |  |  | − | no discernable effect | 
Insulin: Insulin (bovine) | 25000 ng/mL | 16% | ± (about 15-20% (statistically significant from each blank control, p < 0.01)) |  | 
Transferrin: Transferrin (human) |  |  | − |  | 
PDGF |  |  | − | no discernable effect | 
N[C@@H](CCC(=O)O)C(=O)O [glutamate, reference compound] |  |  |  |  | cell survival after glutamate (hippocampal neurons): approximately 10%
MVLLEQKIPENEADGMPATVGDGGLFEK (MVLLEQKIPENEADGMPATVGDGGLFEK) [28 amino acid synthetic peptide fragment] |  |  |  |  | neurotrophic activity (neuronal survival) [2]: A dose-response relationship was observed
IGF-II: insulin-like growth factor II (human, rec.) | 300 ng/mL | 15% | ± (about 15-20% (statistically significant from each blank control, p < 0.01)) |  | 
TGFa: TGFa (human, rec.) |  |  | − | no discernable effect | 
Basic FGF: basic fibroblast growth factor (human, rec.) | 30 ng/mL | 51% | + + (about 35-55%) |  | Motoneuron survival (%) [1]: 51.9 ± 3.6%; EC50 ([1]; motorneuron survival, 3 days in culture): 0.26 ng/mL
